The NIST ThermoML archive (doi:10.1021/je060411g)
“And” between values parts separate entries of the source, which are not always exact repeats. Equal entries are not always repeated. ± gives the expanded uncertainty stated by the source.

Assay: molar heat capacity at constant pressure
Details: 101.33 kPa

CCC(O)CC [3-pentanol]
Details | molar heat capacity at constant pressure
5.43 K, Crystal | 0.93 ± 0.11 J/K/mol
5.48 K, Crystal | 0.88 ± 0.11 J/K/mol
6.3 K, Crystal | 1.18 ± 0.13 J/K/mol
6.63 K, Crystal | 1.23 ± 0.13 J/K/mol
7.14 K, Crystal | 1.52 ± 0.14 J/K/mol
7.71 K, Crystal | 1.85 ± 0.16 J/K/mol
7.86 K, Crystal | 1.91 ± 0.16 J/K/mol
8.49 K, Crystal | 2.31 ± 0.18 J/K/mol
8.59 K, Crystal | 2.43 ± 0.18 J/K/mol
9.16 K, Crystal | 2.77 ± 0.2 J/K/mol
9.61 K, Crystal | 3.11 ± 0.21 J/K/mol
9.92 K, Crystal | 3.43 ± 0.23 J/K/mol
10 K, Crystal | 3.5 ± 0.23 J/K/mol
10.7 K, Crystal | 4.04 ± 0.25 J/K/mol
10.73 K, Crystal | 4.07 ± 0.26 J/K/mol
11.58 K, Crystal | 4.8 ± 0.28 J/K/mol
11.84 K, Crystal | 5.04 ± 0.29 J/K/mol
12.49 K, Crystal | 5.7 ± 0.32 J/K/mol
13.05 K, Crystal | 6.15 ± 0.33 J/K/mol
13.45 K, Crystal | 6.53 ± 0.35 J/K/mol
14.32 K, Crystal | 7.35 ± 0.37 J/K/mol
14.43 K, Crystal | 7.58 ± 0.38 J/K/mol
15 K, Crystal | 8.21 ± 0.4 J/K/mol
15.45 K, Crystal | 8.54 ± 0.41 J/K/mol
15.63 K, Crystal | 8.59 ± 0.41 J/K/mol
16.51 K, Crystal | 9.66 ± 0.45 J/K/mol
16.98 K, Crystal | 10.07 ± 0.46 J/K/mol
17.58 K, Crystal | 10.69 ± 0.48 J/K/mol
18.36 K, Crystal | 11.47 ± 0.5 J/K/mol
18.67 K, Crystal | 11.8 ± 0.51 J/K/mol
19.77 K, Crystal | 13.01 ± 0.54 J/K/mol and 12.97 ± 0.54 J/K/mol
20 K, Crystal | 13.21 ± 0.54 J/K/mol
20.89 K, Crystal | 14.13 ± 0.56 J/K/mol
21.2 K, Crystal | 14.45 ± 0.57 J/K/mol
22.02 K, Crystal | 15.43 ± 0.59 J/K/mol
22.64 K, Crystal | 16.12 ± 0.61 J/K/mol
23.16 K, Crystal | 16.63 ± 0.62 J/K/mol
24.11 K, Crystal | 17.73 ± 0.64 J/K/mol
24.31 K, Crystal | 18.04 ± 0.64 J/K/mol
25 K, Crystal | 18.82 ± 0.66 J/K/mol
25.43 K, Crystal | 19.3 ± 0.66 J/K/mol
25.59 K, Crystal | 19.51 ± 0.67 J/K/mol
26.27 K, Crystal | 19.88 ± 0.66 J/K/mol
26.44 K, Crystal | 21 ± 0.69 J/K/mol
26.46 K, Crystal | 20.69 ± 0.68 J/K/mol
27.41 K, Crystal | 20.88 ± 0.67 J/K/mol
27.44 K, Crystal | 20.97 ± 0.67 J/K/mol
28.31 K, Crystal | 21.71 ± 0.68 J/K/mol
29.2 K, Crystal | 22.65 ± 0.69 J/K/mol
30 K, Crystal | 23.56 ± 0.68 J/K/mol
30.84 K, Crystal | 24.51 ± 0.7 J/K/mol
32.44 K, Crystal | 26.27 ± 0.74 J/K/mol
34.05 K, Crystal | 27.98 ± 0.78 J/K/mol
35 K, Crystal | 28.96 ± 0.8 J/K/mol
35.7 K, Crystal | 29.65 ± 0.82 J/K/mol
37.37 K, Crystal | 30.89 ± 0.84 J/K/mol
39.08 K, Crystal | 32.33 ± 0.88 J/K/mol
40 K, Crystal | 33.19 ± 0.9 J/K/mol
40.8 K, Crystal | 33.94 ± 0.91 J/K/mol
42.52 K, Crystal | 35.56 ± 0.95 J/K/mol
44.25 K, Crystal | 37.13 ± 0.98 J/K/mol
45 K, Crystal | 37.81 ± 1 J/K/mol
46 K, Crystal | 38.7 ± 1 J/K/mol
47.76 K, Crystal | 40.3 ± 1.1 J/K/mol
49.53 K, Crystal | 41.89 ± 1.1 J/K/mol
50 K, Crystal | 42.29 ± 1.1 J/K/mol
51.31 K, Crystal | 43.33 ± 1.1 J/K/mol
53.11 K, Crystal | 44.7 ± 1.2 J/K/mol
54.91 K, Crystal | 46.08 ± 1.2 J/K/mol
55 K, Crystal | 46.14 ± 1.2 J/K/mol
56.73 K, Crystal | 47.47 ± 1.2 J/K/mol
58.56 K, Crystal | 48.81 ± 1.2 J/K/mol
60 K, Crystal | 49.88 ± 1.3 J/K/mol
60.4 K, Crystal | 50.18 ± 1.3 J/K/mol
62.25 K, Crystal | 51.52 ± 1.3 J/K/mol
64.1 K, Crystal | 52.82 ± 1.3 J/K/mol
65 K, Crystal | 53.44 ± 1.4 J/K/mol
65.97 K, Crystal | 54.11 ± 1.4 J/K/mol
67.84 K, Crystal | 55.41 ± 1.4 J/K/mol
69.72 K, Crystal | 56.67 ± 1.4 J/K/mol
70 K, Crystal | 56.86 ± 1.4 J/K/mol
71.6 K, Crystal | 57.95 ± 1.5 J/K/mol
73.49 K, Crystal | 59.18 ± 1.5 J/K/mol
75 K, Crystal | 60.13 ± 1.5 J/K/mol
75.38 K, Crystal | 60.37 ± 1.5 J/K/mol
77.28 K, Crystal | 61.55 ± 1.5 J/K/mol
79.19 K, Crystal | 62.78 ± 1.6 J/K/mol
80 K, Crystal | 63.27 ± 1.6 J/K/mol
81.1 K, Crystal | 63.93 ± 1.6 J/K/mol
83.01 K, Crystal | 65.07 ± 1.6 J/K/mol
84.93 K, Crystal | 66.32 ± 1.6 J/K/mol
85 K, Crystal | 66.36 ± 1.6 J/K/mol
86.86 K, Crystal | 67.47 ± 1.7 J/K/mol
88.78 K, Crystal | 68.55 ± 1.7 J/K/mol
90 K, Crystal | 69.21 ± 2.1 J/K/mol
90.7 K, Crystal | 69.61 ± 2.1 J/K/mol
92.62 K, Crystal | 70.75 ± 2.1 J/K/mol
94.54 K, Crystal | 71.9 ± 2.1 J/K/mol
95 K, Crystal | 72.17 ± 2.1 J/K/mol
96.47 K, Crystal | 72.98 ± 2.1 J/K/mol
98.4 K, Crystal | 74.27 ± 2.1 J/K/mol
98.9 K, Glass | 77.69 ± 2.2 J/K/mol
99.63 K, Glass | 77.09 ± 2.2 J/K/mol
100 K, Crystal | 76.23 ± 2.2 J/K/mol
100.34 K, Crystal | 75.65 ± 2.2 J/K/mol
100.42 K, Crystal | 75.69 ± 2.2 J/K/mol
100.73 K, Crystal | 75.56 ± 2.2 J/K/mol
101.47 K, Glass | 78.26 ± 2.2 J/K/mol
101.88 K, Crystal | 76.15 ± 2.2 J/K/mol
103.84 K, Crystal | 77.02 ± 2.2 J/K/mol
104.37 K, Glass | 79.98 ± 2.2 J/K/mol
105 K, Crystal | 79.46 ± 2.2 J/K/mol
105.79 K, Crystal | 78.1 ± 2.2 J/K/mol
107.23 K, Glass | 82.34 ± 2.3 J/K/mol
107.74 K, Crystal | 79.42 ± 2.2 J/K/mol
109.68 K, Crystal | 80.42 ± 2.3 J/K/mol
110 K, Crystal | 83.89 ± 2.3 J/K/mol
110.1 K, Glass | 84.56 ± 2.3 J/K/mol
111.63 K, Crystal | 81.37 ± 2.3 J/K/mol
112.97 K, Glass | 86.83 ± 2.4 J/K/mol
113.58 K, Crystal | 82.36 ± 2.3 J/K/mol
115.54 K, Crystal | 83.34 ± 2.4 J/K/mol
115.84 K, Glass | 89.3 ± 2.4 J/K/mol
117.49 K, Crystal | 84.31 ± 2.3 J/K/mol
118.71 K, Glass | 92.11 ± 2.5 J/K/mol
119.44 K, Crystal | 85.07 ± 2.3 J/K/mol
120 K, Crystal | 82.36 ± 2.3 J/K/mol
121.39 K, Crystal | 86.04 ± 2.5 J/K/mol
121.59 K, Glass | 95.01 ± 2.5 J/K/mol
123.34 K, Crystal | 87.47 ± 2.4 J/K/mol
124.46 K, Glass | 99.21 ± 2.6 J/K/mol
125.29 K, Crystal | 88.5 ± 2.4 J/K/mol
127.24 K, Crystal | 89.59 ± 2.4 J/K/mol
127.34 K, Glass | 104.26 ± 2.7 J/K/mol
129.2 K, Crystal | 90.65 ± 2.5 J/K/mol
131.15 K, Crystal | 91.7 ± 2.5 J/K/mol
133.11 K, Crystal | 92.81 ± 2.5 J/K/mol
135.06 K, Crystal | 93.83 ± 2.5 J/K/mol
135.56 K, Liquid | 147.41 ± 3.5 J/K/mol
137.01 K, Crystal | 94.96 ± 2.5 J/K/mol
138.31 K, Liquid | 149.27 ± 3.6 J/K/mol
138.96 K, Crystal | 95.99 ± 2.5 J/K/mol
140.92 K, Crystal | 97.1 ± 2.6 J/K/mol
141.2 K, Liquid | 149.61 ± 3.6 J/K/mol
142.87 K, Crystal | 98.24 ± 2.6 J/K/mol
144.14 K, Liquid | 149.91 ± 3.6 J/K/mol
144.82 K, Crystal | 99.32 ± 2.6 J/K/mol
146.77 K, Crystal | 100.55 ± 2.6 J/K/mol
147.09 K, Liquid | 150.15 ± 3.6 J/K/mol
148.72 K, Crystal | 101.76 ± 2.7 J/K/mol
150.04 K, Liquid | 150.36 ± 3.6 J/K/mol
150.67 K, Crystal | 103.08 ± 2.7 J/K/mol
152.61 K, Crystal | 104.4 ± 2.7 J/K/mol
